One assay relates to p38 MAPK. Description: Western blot of p38 MAPK phosphorylation. The format is cell-based, human. The settings on record: for fMLP-induced activation (phosphorylation) of p38 MAP kinase: PMNL, 1 μM compound, 1 μM fMLP. The method, then: (§1) Human polymorphonuclear leukocytes (PMNLs; 50 × 10^6), isolated from whole blood, were resuspended in 1 mL of cold PGC buffer. Briefly, neutrophils were pre-incubated for 15 min at 37 °C with test compounds (1 μM). […] The samples were subsequent centrifuged (1200g, 10 min) and the pellets were resuspended in 100 μL od SDS-PAGE loading buffer (2x) (Tris 1 M pH 8, EDTA 0.2 M, 10 % SDS, 10 % mercaptoethanol). Correct protein loading on the gels and transfer of proteins to the nitrocellulose membrane were confirmed by Ponceau staining. Membranes with transferred proteins were incubated overnight with primary antibodies in 1x Tris Buffered Saline (TBS) with 1 % Casein (Biorad- #1610782). Membranes were then washed and incubated with horseradish peroxidase-conjugated secondary antibodies for 1 h at room temperature. Blots were developed using enhanced chemiluminescence detection reagents ECL (Immobilion ECL Ultra Western HRP Substrate - Cat# WBULS0500 Millipore) and acquired using ChemiDoc Imaging System (BioRad). Antibody recognizing phosphorylated p38-MAPkinase, pERK, ERK, NfKB were from Cell Signalling Technology (Boston, MA) and used at 1:1000 dilution. Secondary antibodies were purchased from Biorad (170–6515; 170–6516) and used at 1:2000 diluition.
For orientation: In western blotting, separated proteins are transferred to a membrane and probed.

For a further assay, the system named is intracellular Ca2+. Description: Intracellular Ca2+ measurements in PMNL (Fura-2). The settings on record: 1 μM compound. The format is cell-based, human. The method, then:
PMNL (10^7 x ml PG buffer) were pre-stained with Fura-2/AM (2 μM) for 45 min at 37 °C in the dark. After two washing steps, cells were resuspended in PG buffer containing 0.1 % BSA at a density of 5 × 10^6/mL. 100 μL of the cell suspension was transferred into a 96-well plate and pre-incubated for 10 min at 37 °C with compound or vehicle (1 % DMSO), and 2 min prior stimulation 1 mM CaCl2 was added, following addition of 0.1 μM fMLP or 2 μM ionomycin as a positive control for Ca^2+ influx. The signal was monitored in a thermally (37 °C) controlled NOVOstar microplate reader (BMG Labtechnologies GmbH, Offenburg, Germany) (emission at 510 nm, excitation at 340 nm (Ca^2+-bound Fura-2) and 380 nm (free Fura-2). After cell lysis with Triton X-100 the maximal fluorescence signals were monitored and after chelating Ca^2+ with 10 mM EDTA the minimal fluorescence signals. The concentration of Ca^2+ was calculated from the ratio of the signals at 340 and 380 nm according to Grynkiewicz G et al..

Another assay concerns ERK. The assay is described as follows: Western blot of ERK phosphorylation. The format is cell-based, human. The settings on record: for fMLP-induced activation (phosphorylation) of ERK: PMNL, 1 μM compound, 1 μM fMLP. The method, then: as §1
A further assay deals with T1, 5-LO/FLAP (Homo sapiens, UniProt P09917).
T1 construct: expressed in transfected cells; host or cells: HEK-293, stably transfected
T1 sequence (P09917 1-674): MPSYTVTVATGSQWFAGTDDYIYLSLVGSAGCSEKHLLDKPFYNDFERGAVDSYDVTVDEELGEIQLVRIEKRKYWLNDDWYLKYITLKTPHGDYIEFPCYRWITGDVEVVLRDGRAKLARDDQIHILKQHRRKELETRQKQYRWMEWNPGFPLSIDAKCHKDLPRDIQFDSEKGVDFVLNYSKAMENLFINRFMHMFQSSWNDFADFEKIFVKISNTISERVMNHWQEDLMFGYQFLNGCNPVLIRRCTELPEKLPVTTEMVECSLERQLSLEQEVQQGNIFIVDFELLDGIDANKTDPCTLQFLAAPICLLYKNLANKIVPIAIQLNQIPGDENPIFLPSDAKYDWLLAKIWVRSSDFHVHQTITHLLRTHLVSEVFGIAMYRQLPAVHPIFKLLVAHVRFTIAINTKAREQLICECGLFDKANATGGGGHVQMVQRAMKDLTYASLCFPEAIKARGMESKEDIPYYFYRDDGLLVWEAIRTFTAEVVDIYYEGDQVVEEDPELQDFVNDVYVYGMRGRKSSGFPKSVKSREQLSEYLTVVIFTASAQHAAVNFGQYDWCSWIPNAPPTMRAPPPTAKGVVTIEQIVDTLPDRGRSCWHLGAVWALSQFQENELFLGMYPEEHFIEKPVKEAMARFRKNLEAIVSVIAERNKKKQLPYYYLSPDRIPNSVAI
Description: Subcellular localization of 5-LO and FLAP by immunofluorescence microscopy in HEK293 cells. The format is cell-based. The settings on record: HEK293 cells expressing 5-LO and FLAP, 3 μM (Fig. 4D) or 10 μM (method). As to the method: Subcellular localization of 5-LO and FLAP was analyzed by immunofluorescence (IF) microscopy. In brief, HEK-293 cells expressing 5-LO/FLAP were seeded onto acid-washed (50 % sulfuric acid) and poly-L-lysine (0.01 %)-coated glass coverslips and cultured for 48 h at 37 °C until ∼60 % confluency. Cells were pre-incubated with 10 μM of compounds or vehicle (0.1 % DMSO) for 10 min before stimulation with 2.5 μM A23187 for 20 min at 37 °C. After fixation with 4 % paraformaldehyde solution, followed by permeabilization by using 50 mM ammonium chloride and acetone (3 min, 4 °C), cells were incubated with 10 % non-immune goat serum blocking solution for 1 h. Then, cells were incubated over night with mouse monoclonal anti-5-LO antibody (1:100) and rabbit polyclonal anti-FLAP antibody ([…]). The coverslips were intensively washed with PBS before staining with the fluorophore-labeled secondary antibodies Alexa Fluor 488 goat anti-rabbit (1:500) and Alexa Fluor 555 goat anti-mouse (1:500) for 20 min in the dark. The coverslips were mounted on glass slides with Mowiol containing 2.5 % n-propyl gallate and 4,6-diamidin-2-phenylindol (DAPI; Invitrogen, Carlsbad, CA), a staining for nuclear DNA. Samples were analyzed by a Zeiss Axio-vert 200 M microscope, and a Plan Neofluar _ 100/1.30 Oil (DIC III) objective (Carl Zeiss, Jena, Germany). […]

The structures appear in SMILES notation.

In the case of `CCCC/C=C\CCCCCCCCCc1cccc(O)c1O` [CI, (Z)-3-(pentadec-10′-enyl)-catechol], the “phosphorylation and expression of p38 MAPK (Western blot)” value with p38 MAPK (LPS stimulation) is “significantly inhibited”. Also, the “fMLP-induced activation (phosphorylation) of p38 MAP kinase” value with p38 MAPK was “inhibited”. Also, the “intracellular Ca2+ concentrations” value in the assay with intracellular Ca2+ is on record as “Neither CS nor CI caused significant changes”. Moreover, in the assay with ERK (LPS stimulation), the “phosphorylation and expression of ERK (Western blot)” value is reported as “significantly inhibited”. Besides, the “fMLP-induced activation (phosphorylation) of ERK” value with ERK is “inhibited”. For the same molecule, on 5-LO/FLAP, the “A23187-induced 5-LO translocation / colocalization with FLAP” value was “able to block”.

Take `CCCCCCCCCCCCCCCc1cccc(O)c1O` [CS, 3-n-pentadecylcatechol]: the “fMLP-induced activation (phosphorylation) of p38 MAP kinase” value in the assay with p38 MAPK was “did not show significant effects”. Besides, the “intracellular Ca2+ concentrations” value in the assay on intracellular Ca2+ was “Neither CS nor CI caused significant changes”. Besides, in the assay on ERK, the “fMLP-induced activation (phosphorylation) of ERK” value is recorded as “did not show significant effects”. Further, the “A23187-induced 5-LO translocation / colocalization with FLAP” value on 5-LO/FLAP is reported as “not successful”.

The record behind these values is publication PMC12523804, “Evaluation of molecular mechanisms of (Z)-3-(pentadec-10′-enyl)-catechol (litreol) and synthetic derivatives as inhibitors of human leukotriene biosynthesis” (Redox Biology, 2025).
